Experimental data taken from patent US20230365647A1 (priority 2020, published 2023).
Read-outs that look alike come from different tables or passages of the source. Where no end group is shown, it is not given here.

Tests used:
PLY [1] = biological target: T1, PLY (Streptococcus pneumoniae serotype 4, UniProt P0C2J9); type: binding
LLO [2] = biological target: T2, LLO (Listeria monocytogenes serotype 4a, UniProt B8DGM3); conditions: for inhibition of LLO-induced hemolysis: human
PLY [3] = biological target: T1, PLY; conditions: for inhibition of PLY-induced hemolysis: human
[4] = mouse, in vivo
PLY [5] = biological target: T1, PLY; type: cell-based
PLY [6] = biological target: T1, PLY; type: cell-based; remark: listed apart in the source
[7] = tested on: pneumococcal strain T4 (TIGR4 of serotype 4); type: binding
[8] = tested on: pneumococci of type 4 or type 2; type: cell-based, Streptococcus pneumoniae
PLY [9] = biological target: T1, PLY; type: cell-based; remark: listed apart in the source
[10] = tested on: pneumococci, type 2 (D39) or type 4 (T4); type: cell-based, Streptococcus pneumoniae
S. pneumoniae T4R = type: cell-based
PLY [11] = biological target: T1, PLY; type: cell-based; remark: listed apart in the source
S. pneumoniae T4 [12] = tested on: S. pneumoniae T4; set-up: species or system zebrafish (Danio renio); conditions: in vivo
S. pneumoniae T4 [13] = type: cell-based, Streptococcus pneumoniae
LLO [14] = biological target: T2, LLO; type: cell-based
[15] = tested on: wild-type pneumococci T4 (TIGR4); type: cell-based
[16] = tested on: human THP-1 derived macrophages; type: cell-based
LLO [17] = biological target: T2, LLO; type: binding

## DCTSAGRSDGWLW [CP1]
PLY [1]
  binding to PLY (ELISA): only background levels of binding
LLO [2]
  LLO-induced hemolysis, residual red blood cell pellet: Complete hemolysis
PLY [3]
  PLY-induced hemolysis, residual red blood cell pellet: Complete hemolysis

## FTWSDGSPVSYEN [P2, FTWSDGSPVSYEN]
LLO [2]
  inhibition of LLO-induced hemolysis: ~35%
[4]
  clinical symptoms: did not develop any clinical symptoms
  toxicity by lung histology analysis: not toxic
PLY [3]
  inhibition of PLY-induced hemolysis: up to 50%

## LVGNIEQNEHSVI [CP2]
PLY [5]
  release of IL-8 in lung tissue model: not
  release of TNF-α in lung tissue model: not
PLY [6]
  LDH release into the supernatant of lung tissue model: did not show any significant reduction
[7]
  binding of FITC-labelled peptide to PLY-producing strain T4: did not show any binding
PLY [1]
  binding to PLY (ELISA): only background levels of binding
[8]
  intracellular bacteria in DCs (fluorescence microscopy): not
PLY [9]
  cell death of macrophages induced by PLY (LDH release): no significant effect
LLO [2]
  LLO-induced hemolysis, residual red blood cell pellet: Complete hemolysis
[10]
  number of intracellular bacteria in DCs (CFU): did not show any significant difference
S. pneumoniae T4R
  co-localization of intracellular T4R with autophagy marker LC3B: did not promote co-localization
PLY [11]
  protection of THP-1 macrophages from PLY cytolysis (live/dead stain): not
PLY [3]
  PLY-induced hemolysis, residual red blood cell pellet: Complete hemolysis
S. pneumoniae T4 [12]
  survival of infected zebrafish embryos: did not show any significant effect
S. pneumoniae T4 [13]
  hemolytic activity of pneumococcal strain T4: no effect
LLO [14]
  cell death of macrophages induced by LLO (LDH release): no significant effect
[15]
  number of invading bacteria in lung epithelial model (CFU): not

## YENWAYGEPNNYQ [P3, YENWAYGEPNNYQ]
PLY [1]
  binding to PLY (ELISA): bind dose-dependently
PLY [9]; 18 h
  cell death of macrophages induced by PLY (LDH release): significantly reduced cell death
LLO [2]
  inhibition of LLO-induced hemolysis: ~35%
[16]
  release of IL-8: significantly reduced
  release of IL-12: significantly reduced
  release of TNF-α: significantly reduced
LLO [17]
  binding to LLO (ELISA): bound dose-dependently
PLY [3]
  PLY-induced hemolysis, increasing concentrations of the peptides: dose-dependently inhibited
  inhibition of PLY-induced hemolysis: up to 50%
LLO [14]; 18 h
  cell death of macrophages induced by LLO (LDH release): significantly reduced cell death
